Literature values in patent US12599665B2, “Gene fusions for control of genetically modified cells” (A2 Biotherapeutics, Inc., priority 2020, dated 2026).

Assays:
[1] = target: T1, Mineralocorticoid receptor (NR3C2) (Homo sapiens, UniProt P08235); conditions: antagonist, Table 2; cited from earlier work
T1 sequence (P08235 1-984): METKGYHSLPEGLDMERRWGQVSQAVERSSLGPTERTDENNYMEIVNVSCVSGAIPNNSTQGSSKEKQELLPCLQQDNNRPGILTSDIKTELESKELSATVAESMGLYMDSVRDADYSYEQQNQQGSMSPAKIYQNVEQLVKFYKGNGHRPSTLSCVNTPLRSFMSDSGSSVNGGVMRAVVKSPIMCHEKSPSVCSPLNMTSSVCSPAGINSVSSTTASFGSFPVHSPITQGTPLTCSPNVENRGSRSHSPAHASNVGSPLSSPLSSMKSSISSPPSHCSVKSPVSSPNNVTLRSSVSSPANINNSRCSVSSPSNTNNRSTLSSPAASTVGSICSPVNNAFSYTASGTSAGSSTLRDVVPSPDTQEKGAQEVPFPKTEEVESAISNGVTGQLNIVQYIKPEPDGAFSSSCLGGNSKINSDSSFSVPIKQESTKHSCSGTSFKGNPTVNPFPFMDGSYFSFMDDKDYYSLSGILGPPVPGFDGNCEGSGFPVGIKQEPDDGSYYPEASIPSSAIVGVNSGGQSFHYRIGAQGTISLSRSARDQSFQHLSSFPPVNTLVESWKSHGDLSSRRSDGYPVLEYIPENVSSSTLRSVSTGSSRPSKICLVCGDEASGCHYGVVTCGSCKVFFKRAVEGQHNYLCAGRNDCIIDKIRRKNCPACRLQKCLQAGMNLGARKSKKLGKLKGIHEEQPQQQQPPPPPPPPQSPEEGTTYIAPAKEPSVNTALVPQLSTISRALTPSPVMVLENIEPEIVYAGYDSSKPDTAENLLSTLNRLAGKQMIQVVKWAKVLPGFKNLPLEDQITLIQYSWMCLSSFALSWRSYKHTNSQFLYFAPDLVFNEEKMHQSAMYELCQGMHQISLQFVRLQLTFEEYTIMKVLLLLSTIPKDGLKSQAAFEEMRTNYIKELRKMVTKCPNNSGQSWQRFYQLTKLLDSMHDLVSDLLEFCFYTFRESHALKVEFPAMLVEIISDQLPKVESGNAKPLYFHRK

[2] = target: T2, Peroxisome proliferator-activated receptor-α (NR1C1) (Homo sapiens, UniProt Q07869); conditions: antagonist, Table 2; cited from earlier work
T2 sequence (Q07869 1-468): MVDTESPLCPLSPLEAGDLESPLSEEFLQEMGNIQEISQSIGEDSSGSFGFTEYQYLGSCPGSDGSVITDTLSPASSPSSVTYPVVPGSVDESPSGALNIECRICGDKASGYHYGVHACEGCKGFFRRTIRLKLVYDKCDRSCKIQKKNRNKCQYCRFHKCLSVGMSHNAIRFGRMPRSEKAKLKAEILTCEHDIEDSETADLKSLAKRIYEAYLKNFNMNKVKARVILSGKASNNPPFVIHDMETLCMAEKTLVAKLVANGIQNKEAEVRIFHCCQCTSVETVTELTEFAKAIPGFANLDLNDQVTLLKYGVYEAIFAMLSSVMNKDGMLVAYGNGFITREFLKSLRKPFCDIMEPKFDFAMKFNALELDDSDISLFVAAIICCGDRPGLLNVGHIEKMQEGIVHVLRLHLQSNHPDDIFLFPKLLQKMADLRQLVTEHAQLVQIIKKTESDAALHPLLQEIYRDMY

[3] = target: Estrogen receptor-β (NR3A2) (Homo sapiens, UniProt Q92731); conditions: antagonist, Table 2; cited from earlier work
[4] = target: T3, ER(T2) (human ER LBD G400V/M543A/L544A) (Homo sapiens, UniProt P03372, G400V/L544A/M543A); conditions: ER(T2) vs ER(T); cited from earlier work
T3 construct: a human ER LBD and comprising point mutations G400V/M543A/L544A, which is termed ER(T2)
T3 sequence (P03372 311-547 G400V/M543A/L544A limits assumed): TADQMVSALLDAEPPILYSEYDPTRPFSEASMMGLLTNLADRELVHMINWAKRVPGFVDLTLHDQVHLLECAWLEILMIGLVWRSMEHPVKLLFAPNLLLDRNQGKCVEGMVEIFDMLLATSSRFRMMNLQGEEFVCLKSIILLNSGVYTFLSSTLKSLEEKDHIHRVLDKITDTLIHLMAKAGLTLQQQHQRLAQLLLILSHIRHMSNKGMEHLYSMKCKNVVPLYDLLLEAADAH

[5] = target: T4, Peroxisome proliferator-activated receptor-γ (NR1C3) (Homo sapiens, UniProt P37231); conditions: antagonist, Table 2, cited from earlier work
T4 sequence (P37231 1-505): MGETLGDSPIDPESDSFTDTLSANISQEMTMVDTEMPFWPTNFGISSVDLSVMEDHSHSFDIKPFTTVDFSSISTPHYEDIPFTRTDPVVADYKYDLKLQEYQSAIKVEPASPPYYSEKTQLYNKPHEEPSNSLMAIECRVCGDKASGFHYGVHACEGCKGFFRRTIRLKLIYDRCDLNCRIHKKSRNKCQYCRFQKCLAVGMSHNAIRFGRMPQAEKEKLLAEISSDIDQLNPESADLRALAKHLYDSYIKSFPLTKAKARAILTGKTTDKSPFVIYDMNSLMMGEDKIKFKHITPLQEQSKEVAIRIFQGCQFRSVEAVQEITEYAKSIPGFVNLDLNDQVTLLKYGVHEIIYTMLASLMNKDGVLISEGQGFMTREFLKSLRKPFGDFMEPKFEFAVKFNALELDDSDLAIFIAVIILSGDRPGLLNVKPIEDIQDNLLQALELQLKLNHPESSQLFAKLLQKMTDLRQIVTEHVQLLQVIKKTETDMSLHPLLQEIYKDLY

Rev-Erb-α (NR1D1) = target: T5, Rev-Erb-α (NR1D1) (Homo sapiens, UniProt P20393); conditions: antagonist, Table 2; cited from earlier work
T5 sequence (P20393 1-614): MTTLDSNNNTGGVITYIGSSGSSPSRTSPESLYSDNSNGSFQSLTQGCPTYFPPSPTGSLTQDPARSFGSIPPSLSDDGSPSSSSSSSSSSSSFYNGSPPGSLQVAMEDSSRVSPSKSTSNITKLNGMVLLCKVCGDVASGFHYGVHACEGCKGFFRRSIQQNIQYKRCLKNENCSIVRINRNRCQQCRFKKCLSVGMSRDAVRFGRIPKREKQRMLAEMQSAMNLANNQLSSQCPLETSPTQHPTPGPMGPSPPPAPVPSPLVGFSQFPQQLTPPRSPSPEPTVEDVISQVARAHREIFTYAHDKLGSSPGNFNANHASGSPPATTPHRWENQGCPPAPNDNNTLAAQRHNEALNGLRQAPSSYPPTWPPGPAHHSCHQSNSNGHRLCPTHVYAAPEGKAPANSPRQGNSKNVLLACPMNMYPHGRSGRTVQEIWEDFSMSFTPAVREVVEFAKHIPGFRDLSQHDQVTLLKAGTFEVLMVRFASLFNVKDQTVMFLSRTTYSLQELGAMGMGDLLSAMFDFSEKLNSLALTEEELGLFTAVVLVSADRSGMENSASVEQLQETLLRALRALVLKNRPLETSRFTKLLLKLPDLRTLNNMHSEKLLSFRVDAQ

[6] = target: T6, Glucocorticoid receptor (NR3C1) (Homo sapiens, UniProt P04150); conditions: antagonist, Table 2; cited from earlier work
T6 sequence (P04150 1-777): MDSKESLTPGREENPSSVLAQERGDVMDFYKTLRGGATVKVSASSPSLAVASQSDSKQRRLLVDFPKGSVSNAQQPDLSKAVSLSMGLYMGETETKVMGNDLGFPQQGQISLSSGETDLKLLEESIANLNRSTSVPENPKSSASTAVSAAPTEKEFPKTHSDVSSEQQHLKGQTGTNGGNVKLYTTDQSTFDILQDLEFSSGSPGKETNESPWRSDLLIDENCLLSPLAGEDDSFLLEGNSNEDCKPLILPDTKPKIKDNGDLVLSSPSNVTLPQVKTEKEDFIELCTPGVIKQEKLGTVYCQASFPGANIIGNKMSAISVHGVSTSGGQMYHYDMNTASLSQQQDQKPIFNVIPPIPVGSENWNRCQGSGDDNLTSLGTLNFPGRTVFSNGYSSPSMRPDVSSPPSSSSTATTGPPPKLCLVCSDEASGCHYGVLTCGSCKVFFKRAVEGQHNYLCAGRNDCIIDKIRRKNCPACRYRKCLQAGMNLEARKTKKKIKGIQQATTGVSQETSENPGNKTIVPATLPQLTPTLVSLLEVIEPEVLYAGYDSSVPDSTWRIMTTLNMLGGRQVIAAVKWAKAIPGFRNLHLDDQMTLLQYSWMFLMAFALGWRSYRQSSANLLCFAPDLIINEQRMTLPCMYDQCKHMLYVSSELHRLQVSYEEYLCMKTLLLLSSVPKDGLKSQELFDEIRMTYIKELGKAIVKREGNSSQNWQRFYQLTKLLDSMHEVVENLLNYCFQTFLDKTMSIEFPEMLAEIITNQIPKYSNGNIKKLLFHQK

Vitamin D receptor [7] = target: T7, Vitamin D receptor (Gallus gallus, UniProt O42392); conditions: antagonist, Table 2; Chicken; cited from earlier work
T7 sequence (O42392 1-451): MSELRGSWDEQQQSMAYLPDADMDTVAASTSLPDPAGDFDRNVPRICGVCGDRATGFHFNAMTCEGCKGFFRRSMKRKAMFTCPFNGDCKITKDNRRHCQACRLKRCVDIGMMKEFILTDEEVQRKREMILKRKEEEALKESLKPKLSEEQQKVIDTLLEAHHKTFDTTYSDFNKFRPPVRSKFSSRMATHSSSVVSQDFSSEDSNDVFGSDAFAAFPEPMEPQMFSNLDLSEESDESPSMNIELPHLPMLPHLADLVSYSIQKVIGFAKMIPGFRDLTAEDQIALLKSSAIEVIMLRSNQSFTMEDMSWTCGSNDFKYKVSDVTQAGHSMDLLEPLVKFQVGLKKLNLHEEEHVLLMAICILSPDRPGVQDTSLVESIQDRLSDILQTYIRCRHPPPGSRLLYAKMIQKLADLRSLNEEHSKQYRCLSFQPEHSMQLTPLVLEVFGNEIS

Vitamin D receptor [8] = target: T8, Vitamin D receptor (Homo sapiens, UniProt P11473); conditions: antagonist, Table 2; cited from earlier work
T8 sequence (P11473 1-427): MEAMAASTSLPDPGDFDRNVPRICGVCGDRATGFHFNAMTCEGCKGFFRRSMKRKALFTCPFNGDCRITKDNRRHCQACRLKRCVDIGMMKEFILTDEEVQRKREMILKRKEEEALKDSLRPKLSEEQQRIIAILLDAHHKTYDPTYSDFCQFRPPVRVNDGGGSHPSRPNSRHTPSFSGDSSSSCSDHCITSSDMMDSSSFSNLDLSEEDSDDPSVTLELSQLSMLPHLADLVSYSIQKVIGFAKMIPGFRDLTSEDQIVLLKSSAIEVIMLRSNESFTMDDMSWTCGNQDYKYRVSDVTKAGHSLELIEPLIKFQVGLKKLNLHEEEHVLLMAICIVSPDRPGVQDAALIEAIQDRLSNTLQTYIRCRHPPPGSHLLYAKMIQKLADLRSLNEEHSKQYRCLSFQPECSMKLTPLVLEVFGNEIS

Chain of Estrogen receptor-β (NR3A2) (Q92731 whole entry, the tested form may be a part): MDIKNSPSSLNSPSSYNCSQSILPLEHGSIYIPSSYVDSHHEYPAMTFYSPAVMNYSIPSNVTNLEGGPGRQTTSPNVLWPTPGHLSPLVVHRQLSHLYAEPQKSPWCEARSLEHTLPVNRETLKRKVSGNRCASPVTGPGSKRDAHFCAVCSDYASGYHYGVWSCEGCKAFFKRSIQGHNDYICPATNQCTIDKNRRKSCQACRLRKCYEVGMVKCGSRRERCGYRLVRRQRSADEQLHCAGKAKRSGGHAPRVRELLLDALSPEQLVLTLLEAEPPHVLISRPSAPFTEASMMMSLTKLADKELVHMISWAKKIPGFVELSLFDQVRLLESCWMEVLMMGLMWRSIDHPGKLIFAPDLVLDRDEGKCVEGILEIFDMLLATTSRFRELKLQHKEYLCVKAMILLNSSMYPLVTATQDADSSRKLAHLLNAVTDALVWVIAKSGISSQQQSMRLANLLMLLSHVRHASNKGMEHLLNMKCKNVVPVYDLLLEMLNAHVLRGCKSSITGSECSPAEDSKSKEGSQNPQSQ

## CCOc1ncc(C)c2c1[C@H](c1ccc(C#N)cc1OC)C(C(N)=O)=C(C)N2 [finerenone]
[1]
  pIC50: (pIC50 7.7),

## CCC(=O)NC[C@H](Cc1ccc(OCCc2nc(-c3ccccc3)oc2C)cc1)N/C(C)=C\C(=O)c1ccc(C(F)(F)F)cc1 [GW6471]
[2]
  pIC50: (pIC50 6.6)

## Oc1ccc(-c2c(-c3ccccc3)nn3c(C(F)(F)F)cc(C(F)(F)F)nc23)cc1 [PHTPP]
[3]
  pKi: (pKi 6.9) (CAS

## 4-hydroxytamoxifen [4-OH-Tamoxifen]
[4]
  sensitivity of ER(T2) to 4-OH-Tamoxifen relative to the ER(T) mutant: roughly 10 fold

## O=C(Nc1ccccc1)c1cc([N+](=O)[O-])ccc1Cl [GW9662]
[5]; Irreversible inhibition
  pIC50: (pIC50 8.1)

## CCOC(=O)C1Cc2ccccc2CN1C(=O)c1ccc(SC)s1 (stereo not drawn) [SR8278]
Rev-Erb-α (NR1D1)
  pIC50: 6.5) (CAS

## CN(C)c1ccc([C@H]2C[C@]3(C)[C@@H](CC[C@]3(O)CCCO)[C@@H]3CCC4=CC(=O)CCC4=C32)cc1 [onapristone]
[6]
  pIC50: (pIC50 7.6),
[1]
  pIC50: (pIC50 6.3),

## C=C1C[C@H](C[C@@H](C)[C@H]2CC[C@H]3/C(=C/C=C4/C[C@@H](O)C[C@H](O)C4=C)CCC[C@]23C)OC1=O [TEI-9647]
Vitamin D receptor [7]
  pIC50: (pIC50 8.2)

## CC[C@@H]1Cc2cc(O)ccc2C2=C1c1ccc(O)cc1C[C@H]2CC [R,R-THC]
[3]
  pKi: 8.4) (CAS

## C=C1/C(=C\C=C2/CCC[C@]3(C)[C@@H]([C@H](C)/C=C/[C@@H](O)C4(C(=O)OCCCC)CC4)CC[C@@H]23)C[C@@H](O)C[C@@H]1O [ZK159222]
Vitamin D receptor [8]
  pIC50: (pIC50 7.5)

## COC(=O)[C@]12CCC(C)(C)C[C@H]1[C@H]1C(=O)C=C3[C@@]4(C)C=C(C#N)C(=O)C(C)(C)[C@@H]4CC[C@@]3(C)[C@]1(C)CC2 [CDDO-Me, Bardoxolone methyl]
[5]
  pKi: 6.9)
